Results taken from patent publication US20070243211A1, “Compositions for regulating metabolic disorders and methods of use thereof” (priority 2005, published 2007).

Test: Uptake of L-carnitine by patients from oral dosage forms, measured by serum plasma levels
Format: in vivo
Text: Softgel capsules provide improved delivery of the components of the composition of the present invention compared to alternative dosage forms. For example, the uptake of L-carnitine by patients from tablets (e.g., measured by serum plasma levels) is about 10-14%; the uptake of L-carnitine from standard hard capsules is about 15-20%; whereas the uptake of L-carnitine from softgel capsules is about 100%.

uptake of L-carnitine (from softgel capsules): about 100%
uptake of L-carnitine (from standard hard capsules): 15-20%
uptake of L-carnitine (from tablets): 10-14%
SMILES: C[N+](C)(C)C[C@H](O)CC(=O)[O-] [L-carnitine]
